# Results: patent US7572463B2, “Oral dosage forms” (Gruenenthal GmbH, priority 1999, dated 2009)
# Where a name gives a salt, the structure may show the parent alone.
# Tests used:
# [1] = In-vitro release profile, European Pharmacopoeia basket apparatus, synthetic gastric then intestinal juices, HPLC; format: physicochemical
# Protocol: The release profiles of the oral dosage forms according to the invention were determined as follows:
# The dosage forms according to the invention were tested in the European Pharmacopoeia basket apparatus at a temperature of the released medium of 37±0.5° C., and at a rate of 50 rpm for 2 hours in 600 ml synthetic gastric juices without enzymes at pH 1.2. Following this, the dosage form was tested for a further 8 hours in 900 ml synthetic intestinal juices without enzymes at pH 7.2. The quantity of active substance released at a given time was determined in each case by means of HPLC. The values shown are average values based in each case on 3 samples. The invention will be explained below with reference to examples.
# The release profile was determined according to the method indicated above using the basket apparatus and this is reproduced in the following Table 1 and in FIG. 1 (as a percentage of the total dose, calculated as tramadol hydrochloride). By way of deviation from the conditions described above, the coated pellets were tested for 18 hours in synthetic intestinal juices without enzymes at pH 7.2.
# The release profile was determined according to the method indicated above using the basket apparatus and this is reproduced in the following Table 2 and in FIG. 2 (as a percentage of the total dose, calculated as tramadol hydrochloride). By way of deviation from the conditions described above, the coated pellets were tested for 10 hours in synthetic intestinal juices without enzymes at pH 7.2.
# [2] = Water solubility of the active-substance salts (saturated solution in deionised water, HPLC); format: physicochemical; conditions: 25° C., 20 hours stirring
# Protocol: The water solubility of the active-substance salts was determined as follows:
# The quantity of the relevant active-substance salts required for this may optionally be determined by means of preliminary experiments.
# After the un-dissolved active-substance salt had been allowed to settle, the clear supernatant was removed by pipette and centrifuged at rate of at least 3000 rpm for five minutes.
# [3] = salt in the ethyl cellulose coated pellets of Example 2
# [4] = salt in the shellac coated pellets of Example 3, tests in synthetic intestinal juices
smiles,measurement,setting,value
"COc1cccc(C2(O)CCCCC2CN(C)C)c1.O=C(O)Cc1ccccc1Nc1c(Cl)cccc1Cl (stereo not drawn) [[1e-(m-methoxyphenyl)-2e-dimethylaminomethyl-cyclohexane-1(a)-ol]-[2-(2′,6′-dichloranilino)-phenylacetate]]",period over which tramadol is released in a retarded manner from the salt,[1]; [3],10 h
same,period over which tramadol is released in a retarded manner from the salt,[1]; [4],8 h
COc1cccc(C2(O)CCCCC2CN(C)C)c1 (stereo not drawn) [tramadol hydrochloride],release of the active substance tramadol from the salt (in words),[1]; [3],released very rapidly
same,release of the active substance tramadol from the salt (in words),[1]; [4],released very rapidly
same,solubility at 20 h,[2]; thermodynamic from solid,> 300 mg/mL
COc1cccc(C2(O)CCCCC2CN(C)C)c1.O=C1NS(=O)(=O)c2ccccc21 (stereo not drawn) [tramadolsaccharinate],water solubility,[2],approx. 20 mg/ml
